Consider two compounds from ChEMBL document CHEMBL1123051, “In the search for new anticancer drugs. 13. Phosphonic and phosphinic analogues of ornithine” (1985).

In experiment [1] the test system is Mus musculus. The experiment is described as follows: Compound was tested against P388 Leukemia cells in mouse at the dose of 50 mg/kg ip, activity expressed as T/C. Type of experiment: functional.
The subject of experiment [2] is Mus musculus. Briefly: Compound was tested against P388 Leukemia cells in mouse at the dose of 150 mg/kg ip, activity expressed as T/C. Type of experiment: functional.
Experiment [3] addresses T1, Ornithine decarboxylase (Rattus norvegicus) (UniProt P09057).
T1 sequence (whole entry): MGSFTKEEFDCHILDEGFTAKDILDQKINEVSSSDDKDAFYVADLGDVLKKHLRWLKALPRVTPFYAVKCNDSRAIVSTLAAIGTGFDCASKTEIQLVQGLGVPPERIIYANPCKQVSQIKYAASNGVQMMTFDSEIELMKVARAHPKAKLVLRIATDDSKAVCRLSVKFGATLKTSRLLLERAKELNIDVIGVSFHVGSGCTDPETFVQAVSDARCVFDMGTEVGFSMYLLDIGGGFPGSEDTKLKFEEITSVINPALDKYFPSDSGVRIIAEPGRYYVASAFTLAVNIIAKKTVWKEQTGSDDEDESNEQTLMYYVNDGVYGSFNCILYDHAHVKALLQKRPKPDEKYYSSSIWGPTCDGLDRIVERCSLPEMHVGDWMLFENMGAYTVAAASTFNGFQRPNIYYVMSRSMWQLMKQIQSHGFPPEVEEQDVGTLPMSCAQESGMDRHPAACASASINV
The experiment is described as follows: Compound was tested for its inhibition against ornithine decarboxylase from rat liver at low concentration; NA means not active.

Activity calls are given as the source filed them. No cut-off for these calls is given here.

On to `CCP(=O)(O)C(N)CCCN.Cl` (stereo unspecified), for which the T/C in the experiment with Mus musculus [1] and in the experiment on Mus musculus [2] was 100 throughout. The outcome in experiment [3] was inactive.

For `CCP(=O)(O)C(C)(N)CCCN.Cl` (stereo unspecified), the T/C in the experiment on Mus musculus [1] and with Mus musculus [2] was 98 in each case. Moreover, the result in experiment [3] was inactive.
